Assay results taken from patent publication US20080227798A1, “POLYMORPHS OF SUCCINATE SALT OF 2-[6-(3-AMINO-PIPERIDIN-1-YL)-3-METHYL-2,4-DIOXO-3,4-DIHYDRO-2H-PYRIMIDIN-1-YLMETHY]-4-FLUOR-BENZONITRILE AND METHODS OF USE THEREFOR” (priority 2006, published 2008).
“Also recorded” adds a separate entry of the source.

What was measured:
Format in all cases: physicochemical
[1] = Moisture sorption/desorption analysis; settings: for form by XRPD of the material remaining after the moisture sorption/desorption analysis: post moisture sorption/desorption
Experimental: Moisture sorption/desorption data were collected on a VTI SGA-100 Vapor Sorption Analyzer. Sorption and desorption data were collected over a range of 5% to 95% relative humidity (RH) at 10% RH intervals under a nitrogen purge. Samples were not dried prior to analysis. Equilibrium criteria used for analysis were less than 0.0100% weight change in 5 minutes, with a maximum equilibration time of 3 hours if the weight criterion was not met. Data were not corrected for the initial moisture content of the samples. NaCl and PVP were used as calibration standards. Moisture sorption and desorption study was conducted on a sample of Form A+B. The sample was prepared by crashed cooling crystallization (Example 3, section A.6) of the polymorphic forms from a ethanol:water (95:5) solution of Compound I. The moisture sorption and desorption study was conducted according to the procedures outlined in Example 3, section B.10. The data collected is plotted in FIG. 13 and summarized in Table L. Moisture sorption and desorption study was conducted on a sample of Form E. The sample was prepared by solvent/antisolvent crystallization (Example 3, section A.7) by the addition of acetonitrile to Compound I in water. The moisture sorption and desorption study was conducted according to the procedures outlined in Example 3, section B.10. The data collected is plotted in FIG. 23 and summarized in Table M. Moisture sorption and desorption study was conducted on a sample of Amorphous Form. The sample was prepared by lyophilolization of a solution of Compound I in water (Example 3, section A.9). The moisture sorption and desorption study was conducted according to the procedures outlined in Example 3, section B.10.

[2] = Thermogravimetric analysis (TGA); settings: from 25° C. to 95° C.
Experimental: Thermogravimetric (TG) analyses were performed using a TA Instruments 2950 thermogravimetric analyzer. Each sample was placed in an aluminum sample pan and inserted into the TG furnace. The furnace was first equilibrated at 25° C., then heated under nitrogen at a rate of 10° C./min, up to a final temperature of 350° C. Nickel and Alumel™ were used as the calibration standards.

[3] = Approximate solubility of Compound I in different solvents; settings: for solubility: thermodynamic from solid, ambient temperature, approximate
Experimental: Compound I prepared by the method described in Example 1 was used for the solubility study. Solvents and other reagents were of ACS or HPLC grade and were used as received.
A weighed sample (typically about 20-25 mg) of Compound I was treated at ambient temperature with aliquots (typically ≧50 μL) of the test solvent with sonication between additions. Solvents were either reagent or HPLC grade. Solubility was estimated from the total volume of solvent used to obtain a clear solution, as determined by visual inspection. Solubility is expressed as “less than” when dissolution was not observed. If dissolution occurred after the last aliquot was added then solubility is expressed as “greater than or equal to” (≧). The actual solubilities may be greater than determined, due to over addition of solvent (large aliquots) or slow dissolution rates. Approximate solubilities of Compound I are summarized in Table A. The solubility values have been rounded to the nearest whole number and are reported to the nearest mg/mL.

[4] = Relative humidity stressing experiments; settings: conditions not given
Source text: Samples of Compound I were placed uncovered in approximately 58%, 88%, and 97% relative humidity jars. The samples were stored in the jars for approximately 8 days. The solids were collected and analyzed by XRPD for form identification. […] An aliquot of a mixture of Form A+B was stressed at 88% relative humidity for 23 days. Amorphous Form was stressed at 58% and 88% relative humidity for 23 days.

[5] = Vapor stress of amorphous solid
Experimental: Amorphous Compound I was placed in acetone, ethanol, and water vapor chambers for up to eight days. The solids were collected and analyzed by XRPD for form identification.
Solids of Amorphous Form of Compound I were stressed in acetone and ethanol vapor stress chambers for 4 days. Other aliquots of the solids were stressed in a water vapor chamber for 4 days and 8 days. The remaining solids were analyzed by XRPD.

Cn1c(=O)cc(N2CCC[C@@H](N)C2)n(Cc2ccccc2C#N)c1=O.O=C(O)CCC(=O)O [Amorphous Form]
weight lost on desorption ([1]; 95-5% RH): Approximately 4.7%
Weight % chg ([1]; Samp RH 4.97%, 25.05° C., elapsed 1278.0 min (desorption)): −1.269%
Weight % chg ([1]; Samp RH 5.09%, 25.06° C., elapsed 84.0 min): −0.975%
Weight % chg ([1]; Samp RH 14.98%, 25.06° C., elapsed 113.6 min (sorption)): −0.589%
Weight % chg ([1]; Samp RH 15.06%, 25.04° C., elapsed 1243.6 min (desorption)): −1.148%
Weight % chg ([1]; Samp RH 24.92%, 25.05° C., elapsed 158.4 min (sorption)): −0.166%
Weight % chg ([1]; Samp RH 25.13%, 25.05° C., elapsed 1210.7 min (desorption)): −1.026%
Weight % chg ([1]; Samp RH 34.90%, 25.04° C., elapsed 277.5 min (sorption)): 0.841%
Weight % chg ([1]; Samp RH 35.06%, 25.05° C., elapsed 1179.2 min (desorption)): −0.912%
Weight % chg ([1]; Samp RH 41.98%, 25.04° C., elapsed 0.1 min (start)): 0.000%
Weight % chg ([1]; Samp RH 45.05%, 25.03° C., elapsed 392.7 min (sorption)): 2.393%
Weight % chg ([1]; Samp RH 45.07%, 25.05° C., elapsed 1144.4 min (desorption)): −0.776%
Weight % chg ([1]; Samp RH 54.99%, 25.02° C., elapsed 470.8 min (sorption)): 4.540%
Weight % chg ([1]; Samp RH 55.11%, 25.04° C., elapsed 1092.3 min (desorption)): −0.545%
Weight % chg ([1]; Samp RH 64.90%, 25.02° C., elapsed 508.0 min (sorption)): 6.988%
Weight % chg ([1]; Samp RH 65.07%, 25.03° C., elapsed 1039.8 min (desorption)): −0.280%
Weight % chg ([1]; Samp RH 74.82%, 25.02° C., elapsed 654.6 min (sorption)): 0.437%
Weight % chg ([1]; Samp RH 74.92%, 25.02° C., elapsed 957.5 min (desorption)): 0.176%
Weight % chg ([1]; Samp RH 84.78%, 25.03° C., elapsed 703.8 min (sorption)): 0.922%
Weight % chg ([1]; Samp RH 85.31%, 25.02° C., elapsed 877.9 min (desorption)): 1.010%
Weight % chg ([1]; Samp RH 94.59%, 25.02° C., elapsed 806.9 min (sorption)): 3.400%
Post MB XRPD (form after moisture sorption/desorption analysis) ([1]; after moisture sorption/desorption): Crystalline, Form A (FIG. 31)
weight lost on sorption ([1]; at 75% relative humidity): Approximately 7%
weight loss on equilibration at 5% relative humidity ([1]; equilibration at 5% RH): 1.0%
weight lost on equilibration ([1]; equilibration at 5% RH): 1.0% weight lost on equilibration at 5% RH,
weight gain ([1]; from 5-95% RH): 4.4%
weight gain on sorption ([1]; from 75% to 95% relative humidity): 4.4%
weight lost ([1]; from 95-5% RH): 4.7%
form by XRPD of the material remaining after the moisture sorption/desorption analysis [1]: Form A; also recorded: low crystallinity A
weight gained on sorption ([1]; up to 65% relative humidity): Approximately 8%
TGA weight loss [2]: 1.8%
TGA weight loss ([2]; lyophilized from Compound I in water): 1.8% weight loss from 25 °C to 95 °C

Cn1c(=O)cc(N2CCC[C@@H](N)C2)n(Cc2cc(F)ccc2C#N)c1=O [Compound I, 2-[6-(3-amino-piperidin-1-yl)-3-methyl-2,4-dioxo-3,4-dihydro-2H-pyrimidin-1-ylmethyl]-4-fluoro-benzonitrile succinate]
solubility ([3]; 2-propanol:water (88:12), organic solvent or mixture, IPA:H2O (88:12)): 11000 µg/mL
solubility ([3]; acetonitrile:water (85:15), organic solvent or mixture, ACN:H2O (85:15)): 101000 µg/mL
solubility ([3]; diethyl ether, organic solvent or mixture, di-Ethyl ether): < 1000 µg/mL
solubility ([3]; ethanol:water (95:5), organic solvent or mixture, EtOH:H2O (95:5)): 5000 µg/mL
Solubility (in words) ([3]; most solvents, except DMF, methanol, TFE, water and water:solvent mixtures): Poor solubility
solubility ([3]; organic solvent or mixture, 1,4-Dioxane): < 1000 µg/mL
solubility ([3]; organic solvent or mixture, 2-Propanol (IPA)): < 1000 µg/mL
solubility ([3]; organic solvent or mixture, Acetone): 2000 µg/mL
solubility ([3]; organic solvent or mixture, Acetonitrile (ACN)): < 1000 µg/mL
solubility ([3]; organic solvent or mixture, Dichloromethane (DCM)): < 1000 µg/mL
solubility ([3]; organic solvent or mixture, Dimethyl Formamide (DMF)): 68000 µg/mL
solubility ([3]; organic solvent or mixture, Ethanol (EtOH)): 2000 µg/mL
solubility ([3]; organic solvent or mixture, Ethyl Acetate (EtOAc)): < 1000 µg/mL
solubility ([3]; organic solvent or mixture, Hexanes): < 1000 µg/mL
solubility ([3]; organic solvent or mixture, Methanol (MeOH)): 20000 µg/mL
solubility ([3]; organic solvent or mixture, Tetrahydrofuran (THF)): < 1000 µg/mL
solubility ([3]; organic solvent or mixture, Toluene): < 1000 µg/mL
solubility ([3]; organic solvent or mixture, Trifluoroethanol (TFE)): > 200000 µg/mL
solubility ([3]; Water (H2O)): 51000 µg/mL

Cn1c(=O)cc(N2CCC[C@@H](N)C2)n(Cc2cc(F)ccc2C#N)c1=O.O=C(O)CCC(=O)O [Form B]
form change in additional relative humidity stressing studies [4]: converted to Form A

Cn1c(=O)cc(N2CCC[C@@H](N)C2)n(Cc2cc(F)ccc2C#N)c1=O.O=C(O)CCC(=O)O [Form E]
Weight % chg ([1]; Samp RH 5.03%, 24.77° C., elapsed 730.6 min (desorption)): −1.322%
Weight % chg ([1]; Samp RH 5.23%, 24.77° C., elapsed 138.3 min): −1.268%
Weight % chg ([1]; Samp RH 14.89%, 24.78° C., elapsed 154.5 min (sorption)): −1.187%
Weight % chg ([1]; Samp RH 14.94%, 24.79° C., elapsed 557.2 min (desorption)): −0.102%
Weight % chg ([1]; Samp RH 24.87%, 24.78° C., elapsed 170.5 min (sorption)): −1.074%
Weight % chg ([1]; Samp RH 25.02%, 24.79° C., elapsed 543.5 min (desorption)): −0.013%
Weight % chg ([1]; Samp RH 34.83%, 24.78° C., elapsed 184.5 min (sorption)): −0.947%
Weight % chg ([1]; Samp RH 35.13%, 24.79° C., elapsed 526.0 min (desorption)): 0.112%
Weight % chg ([1]; Samp RH 35.22%, 24.77° C., elapsed 0.1 min (start)): 0.000%
Weight % chg ([1]; Samp RH 44.87%, 24.78° C., elapsed 203.4 min (sorption)): −0.755%
Weight % chg ([1]; Samp RH 45.03%, 24.78° C., elapsed 512.2 min (desorption)): 0.236%
Weight % chg ([1]; Samp RH 55.04%, 24.79° C., elapsed 253.5 min (sorption)): −0.223%
Weight % chg ([1]; Samp RH 55.05%, 24.78° C., elapsed 499.6 min (desorption)): 0.398%
Weight % chg ([1]; Samp RH 65.05%, 24.78° C., elapsed 281.1 min (sorption)): 0.325%
Weight % chg ([1]; Samp RH 65.16%, 24.78° C., elapsed 487.4 min (desorption)): 0.616%
Weight % chg ([1]; Samp RH 74.87%, 24.78° C., elapsed 301.2 min (sorption)): 0.608%
Weight % chg ([1]; Samp RH 75.25%, 24.78° C., elapsed 471.9 min (desorption)): 0.949%
Weight % chg ([1]; Samp RH 84.67%, 24.79° C., elapsed 322.2 min (sorption)): 1.410%
Weight % chg ([1]; Samp RH 85.18%, 24.77° C., elapsed 452.4 min (desorption)): 1.632%
Weight % chg ([1]; Samp RH 94.73%, 24.78° C., elapsed 415.8 min (sorption)): 4.216%
weight loss on equilibration at 5% relative humidity ([1]; equilibration at 5% RH): 1.3%
form by XRPD of the material remaining after the moisture sorption/desorption analysis [1]: a mixture of Form A and Form E; also recorded: A + small quantity of E

Cn1c(=O)cc(N2CCC[C@@H](N)C2)n(Cc2ccccc2C#N)c1=O.O=C(O)CCC(=O)O [Amorphous Solid of Compound I]
Color/morphology after vapor stress ([5]; Acetone vapor, 4 days): off white, irregular
Color/morphology after vapor stress ([5]; EtOH vapor, 4 days): off white, irregular
Color/morphology after vapor stress ([5]; Water vapor, 4 days): off white, irregular,
Form after vapor stress (XRPD) ([5]; Water vapor, 4 days): A + D
Color/morphology after vapor stress ([5]; Water vapor, 8 days): white, irregular,
Form after vapor stress (XRPD) ([5]; Water vapor, 8 days): low
